{"source": "patent US20190070268A1", "about": "“ABUSE-DETERRENT PHARMACEUTICAL COMPOSITIONS” (priority 2016, published 2019)", "key": {"[1]": {"target": "T1, Thermobifida cellulosilytica cutinase 1 (THC) (Thermobifida cellulosilytica, UniProt E9LVH8)", "T1 construct": "made in house", "T1 sequence (E9LVH8 1-262)": "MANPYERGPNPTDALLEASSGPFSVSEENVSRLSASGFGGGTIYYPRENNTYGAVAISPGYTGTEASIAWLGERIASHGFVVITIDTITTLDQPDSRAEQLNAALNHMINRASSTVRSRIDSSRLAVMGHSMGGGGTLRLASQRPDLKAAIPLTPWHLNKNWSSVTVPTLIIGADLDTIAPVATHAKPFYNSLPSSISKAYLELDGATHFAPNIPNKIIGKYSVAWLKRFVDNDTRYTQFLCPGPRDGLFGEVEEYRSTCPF", "type": "biochemical"}, "[2]": {"tested_on": "Humicola insolens cutinase (HiC)", "type": "biochemical"}, "[3]": {"tested_on": "laccase", "experiment": "Thin layer chromatography of enzymatic conversion", "type": "biochemical", "settings": "samples at 2, 10, 30, 60, 120 minutes"}, "[4]": {"tested_on": "laccase from Trametes villosa (TvL)", "experiment": "Oxygen measurement of laccase catalysed oxidation of opioids (TvL)", "type": "biochemical", "settings": "10 U/ml TvL, 2 mg/ml substrate, distilled water; for oxygen concentration in solution upon laccase oxidation: room temperature", "source_text": "(§1) Laccases use oxygen as electron acceptor, consequently the oxygen concentration decreases upon substrate oxidation."}, "[5]": {"tested_on": "laccase from Myceliophthora thermophila (MtL)", "experiment": "Oxygen measurement of laccase catalysed oxidation of opioids (MtL)", "type": "biochemical", "settings": "10 U/ml MtL, 2 mg/ml substrate, distilled water, room temperature", "source_text": "as §1"}, "[6]": {"tested_on": "laccase mediator system", "experiment": "Laccase mediator system and methadone, oxygen measurement", "type": "biochemical", "settings": "mediator ABTS (best effect)", "procedure": "(§2) During the reaction oxygen acts as electron acceptor and is reduced to water by laccases while the mediators are oxidized. The concentration of oxygen was measured as described above. Oxygen is consumed until the mediator is fully oxidized. […] The second step of the reaction is initiated by addition of the target substrate, which is consequently oxidized by the mediators.\n(§3) In the present experiments the final reaction mixtures contained 0.2 to 6 mM mediator, 1-10 units of laccase per ml and 100-3000 mg L^−1 opioid.\nFor methadone, oxygen measurements were done, but with an extended palette of mediators: In addition to the aforementioned mediators, syringic acid, TEMPO, syringol and ABTS were tested."}, "[7]": {"tested_on": "laccase mediator system", "experiment": "Laccase mediator system and oxycodone, HPLC-MS/TOF", "type": "biochemical", "procedure": "The concentrations were determined with a liquid chromatography-electrospray ionization-time of flight (HPLC-ESI-TOF) mass spectrometer from Agilent (A1260 series, Agilent US). The substances contained in the samples were separated by a Zorbax Hilic Plus, 2.1×100 mm, 3.5 μm (Agilent, US) column. The gradient was set to 100% mobile phase A (65 mM ammonium formiate pH 3.2) with a flow rate of 0.4 mL min^−1 at 40° C. and changed to 100% mobile phase B (acetonitrile) in 15 minutes with an injection volume of 1 μL. The spectra were acquired over the m/z range from 100 to 3000 at a scan rate of two spectra per second. The standard curve for each opioid was performed with corresponding standards ranging from 0.001 to 50 mg L^−1.\nIn addition to the reactions shown in FIG. 17, the mediator vanillin was used at a higher concentration (6 mM). The results can be seen in FIG. 18 and FIG. 19. […] One of oxycodone's main degradation products, oxymorphone, was found in all samples. Oxymorphone is an impurity of oxycodone and is therefore present even in the controls where no laccase or mediator were used."}, "[8]": {"tested_on": "laccase mediator system", "experiment": "Laccase mediator system and oxycodone, oxygen concentration measurement", "type": "biochemical", "settings": "10 units laccase/ml, 1000 mg/L oxycodone", "procedure": "as §2, §3\nThe different mediators were used at concentrations of 2 mM with 10 units laccase ml^−1 and 1000 mgL^−1 oxycodone."}, "[9]": {"target": "T2, pepsin (Sus scrofa, UniProt P00791)", "T2 construct": "purchased Sigma-Aldrich (US) P7000", "T2 sequence (P00791 60-385)": "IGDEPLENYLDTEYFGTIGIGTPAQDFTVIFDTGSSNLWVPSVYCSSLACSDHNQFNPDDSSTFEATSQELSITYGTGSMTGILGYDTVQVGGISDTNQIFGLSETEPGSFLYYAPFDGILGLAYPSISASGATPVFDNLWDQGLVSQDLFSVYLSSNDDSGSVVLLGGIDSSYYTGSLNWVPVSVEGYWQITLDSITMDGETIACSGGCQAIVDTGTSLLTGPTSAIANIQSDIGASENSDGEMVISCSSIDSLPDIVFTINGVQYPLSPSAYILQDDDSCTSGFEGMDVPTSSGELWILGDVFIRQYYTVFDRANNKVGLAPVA", "experiment": "Pepsin digestion assay in simulated gastric fluid with SDS-PAGE", "type": "in vitro ADME", "settings": "SGF pH 1.2 with pepsin, 37° C.", "procedure": "SGF contains 0.084 M HCl, 0.035 M NaCl, 4000 U of pepsin per reaction mixture and has a pH level of 1.2 according to the United States Pharmacopeia (1995). A ratio of 10000 Units of pepsin activity to 1 mg of test protein was used throughout the assay, which is based on an evaluation of the average activity of pepsin recommended in the United States Pharmacopeia (24th edition, 2000) with some modifications. Pepsin (ref. #P7000) was purchased from Sigma-Aldrich (US). All proteins that were used were dissolved in 50 mM Tris-HCl (pH 9.5) at a concentration of 5 mg mL^−1. The reaction mixture contained 1.52 mL of SGF preheated to 37° C. before the addition of 0.08 mL of protein solution (Thomas et al., 2004). The mixture was placed into a thermomixer at 37° C. and was shaken at 400 rpm. For denaturating SDS-polyacrylamide gel electrophoresis (SDS-PAGE) analysis samples of 160 μl were removed at 0 minutes, 0.5 minutes, and 15 minutes after initiation.\nSDS-PAGE was performed to analyze and visually inspect stained protein bands whether the protein band is still intact or fragmented after the digestion assay. […]\nEach 160 μl of the digestion samples was quenched by adding 56 μl of 200 mM NaHCO3 as neutralization step and 56 μl 4× Laemmli (Laemmli 1970) buffer for electrophoresis. Samples were immediately heated up to 99° C. for 10 minutes and analyzed directly or stored at −20° C. […]"}, "[10]": {"tested_on": "laccase from Myceliophthora thermophila (MtL)", "experiment": "Polymerization of morphine with laccase from Myceliophthora thermophila (high concentrations)", "type": "biochemical", "settings": "MTL 10 U to 100 U, 50 mM sodium phosphate buffer pH 7", "protocol": "The reactions were carried out in 50 mM sodium phosphate buffer pH 7."}}}
{"molecule": "CC(=O)Oc1ccc2c3c1O[C@H]1[C@@H](OC(C)=O)C=C[C@H]4[C@@H](C2)N(C)CC[C@@]341", "note": "[diacetylmorphine]", "values": [{"measurement": "DAM concentration", "setting": "[1]", "value": "declines"}, {"measurement": "morphine concentration formed from DAM", "setting": "[1]", "value": "increased"}, {"measurement": "diacetylmorphine hydrolyzed (total acetate yield, HPLC/RI)", "setting": "[1]; pH 7", "value": "more than 50%"}, {"measurement": "DAM concentration", "setting": "[2]", "value": "declines"}, {"measurement": "morphine concentration formed from DAM", "setting": "[2]", "value": "increased"}, {"measurement": "diacetylmorphine hydrolyzed (total acetate yield, HPLC/RI)", "setting": "[2]; pH 7", "value": "more than 50%"}]}
{"molecule": "CC[C@@H](c1cccc(O)c1)[C@@H](C)CN(C)C", "note": "[tapentadol]", "values": [{"measurement": "time at which new dot(s) appear on TLC (new product)", "setting": "[3]", "value": 120, "unit": "s"}, {"measurement": "time at which the reference dot disappears on TLC (all converted)", "setting": "[3]", "value": 120, "unit": "min"}, {"measurement": "oxygen level to which the curve drops", "setting": "[4]", "value": "~0", "unit": "%"}, {"measurement": "oxygen concentration in solution upon laccase oxidation", "setting": "[4]", "value": "converts tapentadol better"}, {"measurement": "oxygen concentration in solution upon laccase oxidation", "setting": "[5]", "value": "much slower"}]}
{"molecule": "CCC(=O)C(CC(C)N(C)C)(c1ccccc1)c1ccccc1", "note": "(stereo not drawn) [methadone]", "values": [{"measurement": "oxygen concentration after addition of the opioid", "setting": "[6]", "value": "decline in oxygen concentration"}]}
{"molecule": "COc1ccc2c3c1O[C@H]1C(=O)CC[C@@]4(O)[C@@H](C2)N(C)CC[C@]314", "note": "[oxycodone]", "values": [{"measurement": "oxycodone concentration (HPLC-MS/TOF)", "setting": "[7]; laccase mediator system, mediators at 2 mM, vanillin also 6 mM", "value": "decrease in oxycodone concentration was confirmed"}, {"measurement": "effect on oxycodone (MS-TOF analysis)", "setting": "[7]; mediator gallic acid", "value": "no apparent effect"}, {"measurement": "peak area of oxymorphone (degradation product) by MS-TOF", "setting": "[7]; oxycodone in combination with the laccase mediator system", "value": "increase in peak area of oxymorphone over time"}, {"measurement": "oxygen concentration in solution upon laccase oxidation", "setting": "[4]", "value": "not capable of converting oxycodone"}, {"measurement": "oxygen concentration after addition of the opioid", "setting": "[8]; mediator ethylvanillin 2 mM", "value": "drop in oxygen concentration"}, {"measurement": "oxygen concentration after addition of the opioid", "setting": "[8]; mediator gallic acid 2 mM", "value": "no apparent effect"}, {"measurement": "oxygen concentration after addition of the opioid", "setting": "[8]; mediator syringic acid 2 mM", "value": "drop in oxygen concentration"}, {"measurement": "oxygen concentration after addition of the opioid", "setting": "[8]; mediator vanillin 2 mM", "value": "drop in oxygen concentration"}, {"measurement": "oxygen concentration in solution upon laccase oxidation", "setting": "[5]", "value": "not capable of converting oxycodone"}]}
{"molecule": "HRP: horse radish peroxidase", "values": [{"measurement": "proteolytic degradation (SDS-PAGE)", "setting": "[9]", "value": "very susceptible to proteolytic degradation"}]}
{"molecule": "CN1CC[C@]23c4c5ccc(O)c4O[C@H]2[C@@H](O)C=C[C@H]3[C@H]1C5", "note": "[morphine]", "values": [{"measurement": "time at which new dot(s) appear on TLC (new product)", "setting": "[3]", "value": 120, "unit": "s"}, {"measurement": "faster degradation of morphine with 10 times more laccase", "setting": "[10]", "value": "~10", "unit": "times"}]}
